molecular target: Prothrombin (Homo sapiens) (UniProt P00734); assay: Binding affinity for human alpha-thrombin

| K ass | SMILES |
| --- | --- |
| 2.4e+06 l M-1 | FC(F)(F)c1cc(Cc2c(-c3ccc(OCCN4CCCC4)cc3)sc3ccccc23)ccc1OCCN1CCCC1 |
| 1.1e+06 l M-1 | Nc1cc(Cc2c(-c3ccc(OCCN4CCCC4)cc3)sc3ccccc23)ccc1OCCN1CCCC1 |
| 1.02e+07 l M-1 | O=[N+]([O-])c1cc(Cc2c(-c3ccc(OCCN4CCCC4)cc3)sc3ccccc23)ccc1OCCN1CCCC1 |
| 2.75e+07 l M-1 | Brc1cc(Cc2c(-c3ccc(OCCN4CCCC4)cc3)sc3ccccc23)ccc1OCCN1CCCC1 |
| 7.27e+06 l M-1 | CCc1cc(Cc2c(-c3ccc(OCCN4CCCC4)cc3)sc3ccccc23)ccc1OCCN1CCCC1 |
| 4.87e+06 l M-1 | Fc1cc(Cc2c(-c3ccc(OCCN4CCCC4)cc3)sc3ccccc23)ccc1OCCN1CCCC1 |
| 1.22e+07 l M-1 | COc1cc(Cc2c(-c3ccc(OCCN4CCCC4)cc3)sc3ccccc23)ccc1OCCN1CCCC1 |
| 1.1e+06 l M-1 | Oc1cc(Cc2c(-c3ccc(OCCN4CCCC4)cc3)sc3ccccc23)ccc1OCCN1CCCC1 |
| 2.42e+07 l M-1 | Cc1cc(Cc2c(-c3ccc(OCCN4CCCC4)cc3)sc3ccccc23)ccc1OCCN1CCCC1 |

Second part, the compound before the results:

| SMILES | K ass |
| --- | --- |
| CCCc1cc(Cc2c(-c3ccc(OCCN4CCCC4)cc3)sc3ccccc23)ccc1OCCN1CCCC1 | 1.02e+06 l M-1 |
| CC(=O)Nc1cc(Cc2c(-c3ccc(OCCN4CCCC4)cc3)sc3ccccc23)ccc1OCCN1CCCC1 | 310000 l M-1 |
| CCNc1cc(Cc2c(-c3ccc(OCCN4CCCC4)cc3)sc3ccccc23)ccc1OCCN1CCCC1 | 290000 l M-1 |
| CCCCc1cc(Cc2c(-c3ccc(OCCN4CCCC4)cc3)sc3ccccc23)ccc1OCCN1CCCC1 | 420000 l M-1 |
| Brc1cc(OCCN2CCCC2)ccc1Cc1c(-c2ccc(OCCN3CCCC3)cc2)sc2ccccc12 | 270000 l M-1 |
| O=S(=O)(Nc1cc(Cc2c(-c3ccc(OCCN4CCCC4)cc3)sc3ccccc23)ccc1OCCN1CCCC1)c1ccccc1 | 220000 l M-1 |
| CS(=O)(=O)Nc1cc(Cc2c(-c3ccc(OCCN4CCCC4)cc3)sc3ccccc23)ccc1OCCN1CCCC1 | 410000 l M-1 |
